In brackets after ≈: the same amount, converted by molar mass.
Key:
Assay type in all cases: functional
Candida tropicalis = experiment: Antifungal activity against Candida tropicalis CGMCC 2.1975 assessed as inhibition of fungal growth incubated for 48 hrs
Candida albicans [1] = experiment: Antifungal activity against Candida albicans CGMCC 2.2086 assessed as inhibition of fungal growth incubated for 48 hrs
Candida albicans [2] = experiment: Antifungal activity against Candida albicans SP3902 assessed as inhibition of fungal growth incubated for 48 hrs
Candida albicans [3] = experiment: Antifungal activity against Candida albicans 17546 assessed as inhibition of fungal growth incubated for 48 hrs
Candida albicans [4] = experiment: Antifungal activity against Candida albicans 56452 assessed as inhibition of fungal growth incubated for 48 hrs
Candida albicans [5] = experiment: Antifungal activity against Candida albicans SP3931 assessed as inhibition of fungal growth incubated for 48 hrs
Candida albicans [6] = experiment: Antifungal activity against Candida albicans 14936 assessed as inhibition of fungal growth incubated for 48 hrs
Candida albicans [7] = experiment: Antifungal activity against Fluconazole-resistant Candida albicans 58288 assessed as inhibition of fungal growth incubated for 48 hrs
Candida albicans [8] = experiment: Antifungal activity against Candida albicans SP3876 assessed as inhibition of fungal growth incubated for 48 hrs
Candida parapsilosis = experiment: Antifungal activity against Candida parapsilosis CGMCC 2.3989 assessed as inhibition of fungal growth incubated for 48 hrs; settings: Lodderomyces parapsilosis
Candida albicans [9] = experiment: Antifungal activity against Candida albicans SP3903 assessed as inhibition of fungal growth incubated for 48 hrs
Candida albicans [10] = experiment: Resistance development in Candida albicans CGMCC 2.2086 assessed as fold increase in MIC after 30 passages by broth microdilution method relative to control
Candida albicans [11] = experiment: Antifungal activity against Fluconazole-resistant Candida albicans 56214 assessed as inhibition of fungal growth incubated for 48 hrs
Candida albicans [12] = experiment: Resistance development in Candida albicans CGMCC 2.2086 assessed as fold increase in MIC after 20 passages by broth microdilution method relative to control

`OC(Cn1cncn1)(Cn1cncn1)c1ccc(F)cc1F` [FLUCONAZOLE] gave an MIC95 (Candida tropicalis) of 1 µM (≈ 0.306 µg/mL), an MIC95 (Candida albicans [1]) of 4 µM (≈ 1.23 µg/mL) and an MIC95 (Candida albicans [2]) of 4 µM (≈ 1.23 µg/mL). It also gave an MIC95 (Candida albicans [3]) of 1 µM (≈ 0.306 µg/mL), an MIC95 (Candida albicans [4]) of 2 µM (≈ 0.613 µg/mL) and an MIC95 (Candida albicans [5]) of 2 µM (≈ 0.613 µg/mL). For the same compound, the MIC95 (Candida albicans [6]) was 2 µM (≈ 0.613 µg/mL), the MIC95 (Candida albicans [7]) was > 64 µM and the MIC95 (Candida albicans [8]) was 8 µM (≈ 2.45 µg/mL). For the same compound, the MIC95 (Candida parapsilosis) was 4 µM (≈ 1.23 µg/mL), the MIC95 (Candida albicans [9]) was 2 µM (≈ 0.613 µg/mL) and the “fold change (FC)” value (Candida albicans [10]) was 128. The MIC95 (Candida albicans [11]) was > 64 µM and the “fold change (FC)” value (Candida albicans [12]) was 64.
